The target in the assay is full-length human HPK1 (MAP4K1) (Homo sapiens (Human), UniProt Q92918). The assay is described as follows: HPK1 Kinase Assay (Biochemical Assay), ADP-Glo. The conditions noted are these: GST-HPK1 3.2 nM, 10 μM ATP, MBP substrate, read-out: HPK1 enzymatic IC50. From the text: HPK1 Kinase Assay (Biochemical Assay).
A recombinant fusion protein consisting of full-length human HPK1 (MAP4K1) with an N-terminal Glutatione S-transferase (GST) tag was produced in insect cells Sf21 using the baculovirus expression system. GST-HPK1 protein was purified from cell lysates by glutathione Sepharose affinity chromatography. The assay is run in three continuous steps: 1) the HPK1 enzymatic kinase reaction, 2) an ATP depletion, and 3) the ADP detection, the steps 2 and 3 are performed with ADP-Glo™ Kinase Assay kit from Promega (V9101). Test compounds were prepared by 10-point serial dilution in dimethyl sulfoxide (DMSO) and 100 nL of each dilution was spotted onto a 384-well Optiplate (Perkin Elmer and Cat #6007299) by Labcyte Echo. 5 μL kinase reaction buffer (0.02% Brij-35, 2 mM DTT, 50 mM HEPES pH 7.5, MgCl2 10 mM, BSA 0.01% and O-glycerophosphate 12.5 mM) containing HPK1 (3.2 nM) enzyme was transferred to each well and incubated for 15 minutes at room temperature at 60% humidity. The enzymatic reaction was started by adding 5 μl of Start-Mix (10 μM ATP and 3.235 μM MBP). After 120 minutes, the reaction was stopped by adding 5 μL of ADP-Glo reagent (Promega, V9101) and incubating for 40 min. in the dark at 23° C. To determine the level of ADP, 10 μl ADP-Glo Detection solution was added and incubated for 1 hour at 23° C. in the dark. The plate was transferred to a Perkin Elmer EnVision (2104 Multilabel Reader) for luminescence detection and percent inhibition activity and IC50 value were determined using Genedata Screener.
In general terms: ADP-Glo turns the ADP formed in a reaction into a luminescent signal.

Each structure is given as a SMILES string.

Chain of full-length human HPK1 (MAP4K1) (Q92918 whole entry, the tested form may be a part): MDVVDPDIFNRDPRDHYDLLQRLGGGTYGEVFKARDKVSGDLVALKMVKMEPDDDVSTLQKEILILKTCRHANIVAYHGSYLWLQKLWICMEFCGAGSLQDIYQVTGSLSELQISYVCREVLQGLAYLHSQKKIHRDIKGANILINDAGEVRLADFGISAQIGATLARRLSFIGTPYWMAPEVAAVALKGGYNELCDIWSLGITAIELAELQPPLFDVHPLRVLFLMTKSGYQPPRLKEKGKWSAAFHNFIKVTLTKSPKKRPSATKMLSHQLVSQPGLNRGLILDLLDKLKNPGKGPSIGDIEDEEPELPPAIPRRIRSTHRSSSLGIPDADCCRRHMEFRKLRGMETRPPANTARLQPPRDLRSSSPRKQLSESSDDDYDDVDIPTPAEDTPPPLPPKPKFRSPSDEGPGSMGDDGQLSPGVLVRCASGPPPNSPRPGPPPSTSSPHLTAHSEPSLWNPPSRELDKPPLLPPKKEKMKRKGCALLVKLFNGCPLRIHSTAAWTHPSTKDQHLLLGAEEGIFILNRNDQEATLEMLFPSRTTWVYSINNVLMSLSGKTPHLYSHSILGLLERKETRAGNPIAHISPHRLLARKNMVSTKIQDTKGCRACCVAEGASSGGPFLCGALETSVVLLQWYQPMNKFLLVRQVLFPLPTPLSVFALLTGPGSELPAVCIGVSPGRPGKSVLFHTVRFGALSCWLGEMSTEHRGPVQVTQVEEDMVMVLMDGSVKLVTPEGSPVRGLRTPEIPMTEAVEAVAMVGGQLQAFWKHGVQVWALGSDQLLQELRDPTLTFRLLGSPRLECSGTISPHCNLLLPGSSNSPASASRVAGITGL

For orientation: IC50 means the concentration needed to halve the response being measured. With `Cc1c(N2CCc3cnc(Nc4ccc(NC(=O)C5(C)COC5)nc4)nc3C2)cnc2c1NCCO2` [Example 8, 3-methyl-N-{5-[(7-{8-methyl-1H,2H,3H-pyrido[2,3-b][1,4]oxazin-7-yl}-5H,6H,7H,8H-pyrido[3,4-d]pyrimidin-2-yl)amino]pyridin-2-yl}oxetane-3-carboxamide], the IC50 lay in the range of 100 to 1000 nM.

On to `Cc1c(N2CCc3cnc(Nc4ccc(C(=O)N5CC[C@@H](N(C)C)C5)cc4)cc3C2)cnc2c1NCCO2` [Example 11, N-{4-[(3R)-3-(dimethylamino)pyrrolidine-1-carbonyl]phenyl}-6-{8-methyl-1H,2H,3H-pyrido[2,3-b][1,4]oxazin-7-yl}-5,6,7,8-tetrahydro-2,6-naphthyridin-3-amine], for which the IC50 is under 100 nM.

`Cc1c(N2CCc3cnc(Nc4cc5n(n4)CC(=O)N(C)CC5)nc3C2)cnc2c1NCCO2` [Example 22, 6-methyl-2-[(7-{8-methyl-1H,2H,3H-pyrido[2,3-b][1,4]oxazin-7-yl}-5H,6H,7H,8H-pyrido[3,4-d]pyrimidin-2-yl)amino]-4H,5H,6H,7H,8H-pyrazolo[1,5-d][1,4]diazepin-7-one]: the IC50 was 100 to 1000 nM.

Regarding `Cc1cc(Nc2ncc3c(n2)CN(c2cnc4c(c2C)NCCO4)CC3)cnc1N(C)CCN1CCOCC1` [Example 43, N2,3-dimethyl-N5-(7-{8-methyl-1H,2H,3H-pyrido[2,3-b][1,4]oxazin-7-yl}-5H,6H,7H,8H-pyrido[3,4-d]pyrimidin-2-yl)-N2-[2-(morpholin-4-yl)ethyl]pyridine-2,5-diamine], the IC50 was under 100 nM.

On to `Cc1c(N2CCc3cnc(Nc4ccnc(N5CCOCC5)c4)cc3C2)cnc2c1NCCO2` [Example 54, 6-(8-methyl-2,3-dihydro-1H-pyrido[2,3-b][1,4]oxazin-7-yl)-N-(2-morpholinopyridin-4-yl)-5,6,7,8-tetrahydro-2,6-naphthyridin-3-amine], for which the IC50 is under 100 nM.

Take `Cc1c(N2CCc3cnc(Nc4ccc5c(c4)CCN(C)CC5)nc3C2)cnc2c1NCCO2` [Example 62, 3-methyl-N-(7-{8-methyl-1H,2H,3H-pyrido[2,3-b][1,4]oxazin-7-yl}-5H,6H,7H,8H-pyrido[3,4-d]pyrimidin-2-yl)-2,3,4,5-tetrahydro-1H-3-benzazepin-7-amine]: the IC50 was under 100 nM.

In the case of `Cc1c(N2CCc3cnc(Nc4ccc(CN5CCN(C)CC5)cc4)nc3C2)cnc2c1NCCO2` [Example 64, 7-{8-methyl-1H,2H,3H-pyrido[2,3-b][1,4]oxazin-7-yl}-N-{4-[(4-methylpiperazin-1-yl)methyl]phenyl}-5H,6H,7H,8H-pyrido[3,4-d]pyrimidin-2-amine], the IC50 is under 100 nM.

Regarding `Cc1c(N2CCc3cnc(NC4CCN(Cc5cnn(C)c5)CC4)nc3C2)cnc2c1NCCO2` [Example 70, N-(7-{8-methyl-1H,2H,3H-pyrido[2,3-b][1,4]oxazin-7-yl}-5H,6H,7H,8H-pyrido[3,4-d]pyrimidin-2-yl)-1-[(1-methyl-1H-pyrazol-4-yl)methyl]piperidin-4-amine], the IC50 is over 1000 nM.

For the compound `Cc1c(N2CCc3cnc(Nc4ccnc(S(C)(=O)=O)c4)nc3C2)cnc2c1NCCO2` [Example 75, 7-(8-methyl-2,3-dihydro-1H-pyrido[2,3-b][1,4]oxazin-7-yl)-N-(2-(methylsulfonyl)pyridin-4-yl)-5,6,7,8-tetrahydropyrido[3,4-d]pyrimidin-2-amine], the IC50 was under 100 nM.

For `COCc1cncc(N2CCc3cnc(Nc4ccc(C5CCOCC5)c(CO)c4)nc3C2)c1` [Example 78, (5-((7-(5-(methoxymethyl)pyridin-3-yl)-5,6,7,8-tetrahydropyrido[3,4-d]pyrimidin-2-yl)amino)-2-(tetrahydro-2H-pyran-4-yl)phenyl)methanol], the IC50 is 100 to 1000 nM.

For the compound `Cc1cnsc1N1CCc2cnc(Nc3cc4n(n3)CC(=O)N(C(C)C)CC4)nc2C1` [Example 86, 2-{[7-(4-methyl-1,2-thiazol-5-yl)-5H,6H,7H,8H-pyrido[3,4-d]pyrimidin-2-yl]amino}-6-(propan-2-yl)-4H,5H,6H,7H,8H-pyrazolo[1,5-d][1,4]diazepin-7-one; trifluoroacetic acid], the concentration for half-maximal inhibition (IC50) is over 1000 nM.

For `Cc1c(N2CCc3cnc(Nc4cnc5c(c4)CN(C)CC5)nc3C2)cnc2c1NC(=O)CO2` [Example 88, 8-methyl-7-(2-((6-methyl-5,6,7,8-tetrahydro-1,6-naphthyridin-3-yl)amino)-5,8-dihydropyrido[3,4-d]pyrimidin-7(6H)-yl)-1H-pyrido[2,3-b][1,4]oxazin-2(3H)-one], the IC50 was under 100 nM.

For `Cc1c(N2CCc3cnc(Nc4cnc5c(c4)CN(C)CC5)nc3C2)cnc2c1OCCO2` [Example 95, 7-(8-methyl-2,3-dihydro-[1,4]dioxino[2,3-b]pyridin-7-yl)-N-(6-methyl-5,6,7,8-tetrahydro-1,6-naphthyridin-3-yl)-5,6,7,8-tetrahydropyrido[3,4-d]pyrimidin-2-amine], the IC50 is under 100 nM.

`Cc1c(N2CCc3cnc(Nc4cnc5c(c4)CN(C)CC5)nc3C2)cnc2c1N(C)CCO2` [Example 101, 7-(1,8-dimethyl-2,3-dihydro-1H-pyrido[2,3-b][1,4]oxazin-7-yl)-N-(6-methyl-5,6,7,8-tetrahydro-1,6-naphthyridin-3-yl)-5,6,7,8-tetrahydropyrido[3,4-d]pyrimidin-2-amine]: the 50% inhibitory concentration (IC50) was under 100 nM.

Regarding `CN1CCc2ncc(Nc3ncc4c(n3)CN(c3cnn(C)c3)CC4)cc2C1` [Example 114, 7-(1-methyl-1H-pyrazol-4-yl)-N-(6-methyl-5,6,7,8-tetrahydro-1,6-naphthyridin-3-yl)-5,6,7,8-tetrahydropyrido[3,4-d]pyrimidin-2-amine], the IC50 was under 100 nM.

For `COc1cccc(F)c1N1CCc2cnc(Nc3ccc(C4CCN(C)CC4)cc3)nc2C1` [Example 117, 7-(2-fluoro-6-methoxyphenyl)-N-(4-(1-methylpiperidin-4-yl)phenyl)-5,6,7,8-tetrahydropyrido[3,4-d]pyrimidin-2-amine], the IC50 was under 100 nM.

For `Cc1c(N2CCc3cnc(Nc4ccc(CN5CC(C)(O)C5)cc4)nc3C2)cnc2c1NCCO2` [Example 123, 3-methyl-1-(4-((7-(8-methyl-2,3-dihydro-1H-pyrido[2,3-b][1,4]oxazin-7-yl)-5,6,7,8-tetrahydropyrido[3,4-d]pyrimidin-2-yl)amino)benzyl)azetidin-3-ol], the IC50 lay in the range of 100 to 1000 nM.

For the compound `CN1CCc2ncc(Nc3ncc4c(n3)CN(c3ccccn3)CC4)cc2C1` [Example 129, 6-methyl-N-[7-(pyridin-2-yl)-5H,6H,7H,8H-pyrido[3,4-d]pyrimidin-2-yl]-5,6,7,8-tetrahydro-1,6-naphthyridin-3-amine], the concentration for half-maximal inhibition (IC50) is 100 to 1000 nM.

For the compound `Cc1c(N2CCc3cnc(Nc4ccc(CCO)cc4)nc3C2)cnc2c1NCCO2` [Example 134, 2-{4-[(7-{8-methyl-1H,2H,3H-pyrido[2,3-b][1,4]oxazin-7-yl}-5H,6H,7H,8H-pyrido[3,4-d]pyrimidin-2-yl)amino]phenyl}ethan-1-ol], the IC50 is under 100 nM.

As to `CS(=O)(=O)Cc1ccc(Nc2ncc3c(n2)CN(c2cnc4cnccn24)CC3)cc1` [Example 136, 7-{imidazo[1,2-a]pyrazin-3-yl}-N-[4-(methanesulfonylmethyl)phenyl]-5H,6H,7H,8H-pyrido[3,4-d]pyrimidin-2-amine], the IC50 was over 1000 nM.

Regarding `COCCOCCS(=O)(=O)Cc1ccc(Nc2ncc3c(n2)CN(c2cnc4c(c2C)NCCO4)CC3)cc1` [Example 137, N-(4-{[2-(2-methoxyethoxy)ethanesulfonyl]methyl}phenyl)-7-{8-methyl-1H,2H,3H-pyrido[2,3-b][1,4]oxazin-7-yl}-5H,6H,7H,8H-pyrido[3,4-d]pyrimidin-2-amine], the IC50 was under 100 nM.

`Cc1c(N2CCc3cnc(Nc4cc5n(n4)CC(=O)N(C4CC4)CC5)cc3C2)cnc2c1NCCO2` [Example 141, 6-cyclopropyl-2-[(6-{8-methyl-1H,2H,3H-pyrido[2,3-b][1,4]oxazin-7-yl}-5,6,7,8-tetrahydro-2,6-naphthyridin-3-yl)amino]-4H,5H,6H,7H,8H-pyrazolo[1,5-d][1,4]diazepin-7-one]: the IC50 is under 100 nM.

For the compound `Cn1ccc2c(N3CCc4cnc(Nc5ccc(CS(C)(=O)=O)cc5)nc4C3)ccnc21` [Example 146, N-[4-(methanesulfonylmethyl)phenyl]-7-{1-methyl-1H-pyrrolo[2,3-b]pyridin-4-yl}-5H,6H,7H,8H-pyrido[3,4-d]pyrimidin-2-amine], the IC50 was over 1000 nM.

Turning to `Cc1cc(Nc2ncc3c(n2)CN(c2cnc4c(c2C)NCCO4)CC3)ccc1CC#N` [Example 149, 2-{2-methyl-4-[(7-{8-methyl-1H,2H,3H-pyrido[2,3-b][1,4]oxazin-7-yl}-5H,6H,7H,8H-pyrido[3,4-d]pyrimidin-2-yl)amino]phenyl}acetonitrile], the IC50 was under 100 nM.

In the case of `Clc1c(N2CCc3cnc(Nc4ccc(-c5nnc(C6CC6)o5)cc4)nc3C2)cnc2c1NCCO2` [Example 159, 7-{8-chloro-1H,2H,3H-pyrido[2,3-b][1,4]oxazin-7-yl}-N-[4-(5-cyclopropyl-1,3,4-oxadiazol-2-yl)phenyl]-5H,6H,7H,8H-pyrido[3,4-d]pyrimidin-2-amine], the IC50 was under 100 nM.
